Test results taken from article PMC9231138, “Dihydrotanshinone I Enhances Cell Adhesion and Inhibits Cell Migration in Osteosarcoma U−2 OS Cells through CD44 and Chemokine Signaling” (Molecules, 2022).

Assays:
Type in all cases: cell-based, human
[1] = test system: U−2 OS cells transfected with CD44 siRNA; assay: Trypsin digestion time, CD44 siRNA knockdown U−2 OS cells; details: DS−1 7.5 μM for 24 h, 25 °C, control about 120 s
Description: Figure 8 CD44 knockdown reduced cell adhesion by shortening cell protrusions. (A) U−2 OS cells transfected with CD44 siRNA and no siRNA were seeded into a 24-well plate treated with 7.5 μM DS−1 for 24 h, and the expression of CD44 was detected by immunofluorescence. (B) CD44 expression of U−2 OS cells was detected by Western blotting after being treated with siRNA for 0, 24, and 36 h. (C) U−2 OS cells were first transfected with/without CD44 siRNA and then treated with DS−1 for 24 h, and its actin morphologies were detected. The representative magnified actin morphologies are listed in (D). (E) The lengths of protrusions in (C) were analyzed by Image J and are shown in a scatterplot graph. The lengths of 20 protrusions from actin in (C) were calculated. Each value is the average of 20 lengths of protrusions, ** p < 0.01, *** p < 0.005. (F) U−2 OS cells were transfected with CD44 siRNA, then treated with 0 and 7.5 μM DS−1 for 24 h and digested with trypsin at 25 °C; the digestion time was recorded by a microscope, and photos were taken every 30 s. The percentage of digested cells is recorded in (G).
Small interfering RNA (siRNA) oligonucleotide was synthesized by Sunya Biotechnology Co., Ltd (Hangzhou, China). The siRNA sequences were as follows: sense (5′–3′), UAUUCCACGUGGAGAAAAAtt; antisense (5′–3′), UUUUUCUCCACGUGGAAUAca. […]

U−2 OS cells = assay: Cell adhesion: trypsin digestion time, U−2 OS cells; details: DS−1 7.5 μM for 24 h, trypsin at 25 °C; control within 120 s
Description: We wondered if there were other pathways affecting cell migration besides EMT signals.
Figure 7 DS−1 enhanced U−2 OS cells’ adhesion. (A) The morphological changes of U−2 OS cells treated with/without DS−1. Cells were treated with 0 and 7.5 μM DS−1 for 24 h, washed with PBS, and digested with trypsin at 25 °C under a microscope, and photos were taken every 30 s. The percentages of digested cells are recorded in (B). (C) Heatmap of genes related to the adherens’ junction in the control group and DS−1 group. (D) U−2 OS cells were treated with 0 and 7.5 μM DS−1 for 24 h, and the expression of CD44 was observed by immunofluorescence. (E,F) CD44 and GAPDH were analyzed by Western blot and calculated by Image J. (G) The relative expression of 4 kinds of MT-MMPs was analyzed by the transcriptome, as shown in the heatmap. (H) After being treated with DS−1, the relative expression of MT-MMP-1 was verified by RT-PCR. Values are the average of three independent experiments, * p < 0.05, ** p < 0.01, *** p < 0.005.

vimentin = assay: RT-PCR vimentin mRNA in U−2 OS cells; details: 24 h
Description: Total RNA within cells was extracted by the RNAeasy™ Animal Long RNA Isolation Kit with Spin Column (Shanghai, Beyotime); the concentrations and OD260/OD280 and OD230/OD260 values were measured by NanoDrop. Five micrograms of RNA was used for reverse transcription; each sample was diluted to 16 μL, and 4 μL of synthesized premix solution (5×) was added, then the mixtures were placed in a 42 °C water bath for 10 min, then an 80 °C water bath for 10 min to deactivate reverse transcriptase. After reverse transcription, each sample was diluted to 140 μL. PCR amplification was carried out by the ABI700 real-time PCR system, and the amplification reaction was detected with a SYBR probe. After PCR, actin and GAPDH were used as internal references, and the relative standard curve method (2^−ΔΔcT) determined the relative expression of mRNA.

Cc1cccc2c3c(ccc12)C1=C(C(=O)C3=O)[C@@H](C)CO1 [DS−1, 15,16-Dihydrotanshinone I]
time to total trypsin digestion [1]: ≤ 150 s
time of trypsin digestion (U−2 OS cells): ≤ 210 s
vimentin mRNA, fold of the control group (vimentin; DS−1 2.5 µM): 0.67 ± 0.11 fold
vimentin mRNA, fold of the control group (vimentin; DS−1 5.0 µM): 0.51 ± 0.11 fold
vimentin mRNA, fold of the control group (vimentin; DS−1 7.5 µM): 0.12 ± 0.16 fold
